Assay results as given in US11596639B2, “Substituted indole Mcl-1 inhibitors” (Vanderbilt University, priority 2016, dated 2023).

Target: Mcl-1 (Homo sapiens (Human), UniProt Q07820)
Assay: Fluorescence polarization anisotropy (FPA) competition assay, FITC-Bak or FITC-Bim BH3 peptide
Type: binding
Details: read-out: Ki for Inhibition of Mcl-1 by FPA assay

Chain of Mcl-1 (Q07820 172-327): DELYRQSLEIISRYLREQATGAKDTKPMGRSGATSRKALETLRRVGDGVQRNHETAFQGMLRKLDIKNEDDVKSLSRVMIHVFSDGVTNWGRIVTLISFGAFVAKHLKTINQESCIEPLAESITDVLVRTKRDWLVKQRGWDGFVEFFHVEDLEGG

SMILES | Ki [nM]
Cc1cc(OCCCc2c3n(c4c(-c5c(C)nn(C)c5C)c(Cl)ccc24)CCCN(c2cccc4c(C#N)cn(C)c24)C3=O)cc(C)c1Cl [Example 6, 7-[8-Chloro-11-[3-(4-chloro-3,5-dimethyl-phenoxy)propyl]-1-oxo-7-(1,3,5-trimethylpyrazol-4-yl)-4,5-dihydro-3H-[1,4]diazepino[1,2-a]indol-2-yl]-1-methyl-indole-3-carbonitrile] | 54
Cc1cc(OCCCc2c3n(c4c(-c5c(C)nn(C)c5C)c(Cl)ccc24)[C@H](C)CN(c2cccc4cc(C(=O)O)n(CC5CCN(C)C5)c24)C3=O)cc(C)c1Cl (stereo partly drawn) [Example 320, 7-((R)-7-Chloro-10-(3-(4-chloro-3,5-dimethylphenoxy)propyl)-4-methyl-1-oxo-6-(1,3,5-trimethyl-1H-pyrazol-4-yl)-3,4-dihydropyrazino[1,2-a]indol-2(1H)-yl)-1-((1-methylpyrrolidin-3-yl)methyl)-1H-indole-2-carboxylic acid] | 2.7
Cc1cc(OCCCc2c3n(c4c(-c5c(C)nn(C)c5C)c(Cl)ccc24)CCCN(c2cc4c(c(C(=O)O)c2)OCC4)C3=O)cc(C)c1Cl [Example 18, 5-[8-chloro-11-[3-(4-chloro-3,5-dimethyl-phenoxy)propyl]-1-oxo-7-(1,3,5-trimethylpyrazol-4-yl)-4,5-dihydro-3H-[1,4]diazepino[1,2-a]indol-2-yl]-2,3-dihydrobenzofuran-7-carboxylic acid] | 5.8
Cc1cc(OCCCc2c3n(c4c(-c5c(C)nn(C)c5C)c(Cl)ccc24)[C@H](C)CN(c2cn(C)c4cc(C(F)(F)F)ccc24)C3=O)cc(C)c1Cl [Example 199, (4R)-7-chloro-10-[3-(4-chloro-3,5-dimethyl-phenoxy)propyl]-4-methyl-2-[1-methyl-6-(trifluoromethyl)indol-3-yl]-6-(1,3,5-trimethylpyrazol-4-yl)-3,4-dihydropyrazino[1,2-a]indol-1-one] | 12
CCN1C(=O)COc2cc(C(=O)O)cc(N3C[C@@H](C)n4c(c(CCCOc5cc(C)c(Cl)c(C)c5)c5ccc(Cl)c(-c6c(C)nn(C)c6C)c54)C3=O)c21 [Example 90, (R)-5-(7-chloro-10-(3-(4-chloro-3,5-dimethylphenoxy)propyl)-4-methyl-1-oxo-6-(1,3,5-trimethyl-1H-pyrazol-4-yl)-3,4-dihydropyrazino[1,2-a]indol-2(1H)-yl)-4-ethyl-3-oxo-3,4-dihydro-2H-benzo[b][1,4]oxazine-7-carboxylic acid] | 8.7
Cc1cc(OCCCc2c(C(=O)N(C)c3cccc(C(=O)O)c3)n(CCN3CCOCC3)c3c(-c4c(C)nn(C)c4C)c(Cl)ccc23)cc(C)c1Cl [Example 730, 3-[[6-chloro-3-[3-(4-chloro-3,5-dimethyl-phenoxy)propyl]-1-(2-morpholinoethyl)-7-(1,3,5-trimethylpyrazol-4-yl)indole-2-carbonyl]-methyl-amino]benzoic acid] | 20
Cc1cc(OCCCc2c3n(c4c(-c5c(C)nn(C)c5C)c(Cl)ccc24)[C@H](C)CN(c2ccc(OCC4CCN(C)C4)c4c2cc(C(=O)O)n4C)C3=O)cc(C)c1Cl (stereo partly drawn) [Example 319, 4-((M, R)-7-Chloro-10-(3-(4-chloro-3,5-dimethylphenoxy)propyl)-4-methyl-1-oxo-6-(1,3,5-trimethyl-1H-pyrazol-4-yl)-3,4-dihydropyrazino[1,2-a]indol-2(1H)-yl)-1-methyl-7-((1-methylpyrrolidin-3-yl)methoxy)-1H-indole-2-carboxylic acid] | 3.2
Cc1cc(OCCCc2c3n(c4c(-c5c(C)nn(C)c5C)c(Cl)ccc24)CCCN(c2ccc4c(c2)CCCN4CC(=O)O)C3=O)cc(C)c1Cl [Example 46, 2-(6-(8-Chloro-11-(3-(4-chloro-3,5-dimethylphenoxy)propyl)-1-oxo-7-(1,3,5-trimethyl-1H-pyrazol-4-yl)-4,5-dihydro-1H-[1,4]diazepino[1,2-a]indol-2(3H)-yl)-3,4-dihydroquinolin-1(2H)-yl)acetic acid] | 26
Cc1cc(OCCCc2c3n(c4c(-c5c(C)nn(C)c5C)c(Cl)ccc24)[C@H](C)[C@@H](C)N(c2cc(C(=O)O)c4ccn(C)c4c2)C3=O)cc(C)c1Cl [Example 143, 6-((3R,4R)-7-chloro-10-(3-(4-chloro-3,5-dimethylphenoxy)propyl)-3,4-dimethyl-1-oxo-6-(1,3,5-trimethyl-1H-pyrazol-4-yl)-3,4-dihydropyrazino[1,2-a]indol-2(1H)-yl)-1-methyl-1H-indole-4-carboxylic acid] | 7.6
Cc1cc(OCCCc2c3n(c4c(-c5c(C)nn(C)c5C)c(Cl)ccc24)CCCN(Cc2cc(C(=O)O)cc(N4CCNCC4)n2)C3=O)cc(C)c1Cl [Example 10, 2-((8-Chloro-11-(3-(4-chloro-3,5-dimethylphenoxy)propyl)-1-oxo-7-(1,3,5-trimethyl-1H-pyrazol-4-yl)-4,5-dihydro-1H-[1,4]diazepino[1,2-a]indol-2(3H)-yl)methyl)-6-(piperazin-1-yl)isonicotinic acid] | 57
Cc1cc(OCCCc2c3n(c4c(-c5c(C)nn(C)c5C)c(Cl)ccc24)CCCN(Cc2cc(C(=O)O)cc(N4CCN(C(=O)OC(C)(C)C)CC4)n2)C3=O)cc(C)c1Cl [Example 8, 2-(4-(Tert-butoxycarbonyl)piperazin-1-yl)-6-((8-chloro-11-(3-(4-chloro-3,5-dimethylphenoxy)propyl)-1-oxo-7-(1,3,5-trimethyl-1H-pyrazol-4-yl)-4,5-dihydro-1H-[1,4]diazepino[1,2-a]indol-2(3H)-yl)methyl)isonicotinic acid] | 27
Cc1cc(OCCCc2c3n(c4c(-c5c(C)nn(C)c5C)c(Cl)ccc24)CCCN(c2cc(C(=O)O)cc4c2cnn4CCN(C)C)C3=O)cc(C)c1Cl [Example 40, 4-[8-Chloro-11-[3-(4-chloro-3,5-dimethyl-phenoxy)propyl]-1-oxo-7-(1,3,5-trimethylpyrazol-4-yl)-4,5-dihydro-3H-[1,4]diazepino[1,2-a]indol-2-yl]-1-[2-(dimethylamino)ethyl]indazole-6-carboxylic acid] | 3.9
Cc1cc(OCCCc2c3n(c4c(-c5c(C)nn(C)c5C)c(Cl)ccc24)[C@H](C)CN(c2cccc4c2cc(C(=O)O)n4CCN2CCCC2)C3=O)cc(C)c1Cl [Example 369, (R)-4-(7-Chloro-10-(3-(4-chloro-3,5-dimethylphenoxy)propyl)-4-methyl-1-oxo-6-(1,3,5-trimethyl-1H-pyrazol-4-yl)-3,4-dihydropyrazino[1,2-a]indol-2(1H)-yl)-1-(2-(pyrrolidin-1-yl)ethyl)-1H-indole-2-carboxylic acid] | 3.2
Cc1cc(OCCCc2c3n(c4c(-c5c(C)nn(C)c5C)c(Cl)ccc24)CCCN(C2=CNC(C(=O)O)=C(O)N2)C3=O)cc(C)c1Cl [Example 73, 5-(8-Chloro-11-(3-(4-chloro-3,5-dimethylphenoxy)propyl)-1-oxo-7-(1,3,5-trimethyl-1H-pyrazol-4-yl)-4,5-dihydro-1H-[1,4]diazepino[1,2-a]indol-2(3H)-yl)-3-hydroxy-1,4-dihydropyrazine-2-carboxylic acid] | < 1
COCCCc1c2n(c3c(-c4c(C)nn(C)c4C)c(Cl)ccc13)[C@H](C)CN(c1cn(C)c3ccc(C(=O)O)cc13)C2=O [Example 406, (R)-3-(7-Chloro-10-(3-methoxypropyl)-4-methyl-1-oxo-6-(1,3,5-trimethyl-1H-pyrazol-4-yl)-3,4-dihydropyrazino[1,2-a]indol-2(1H)-yl)-1-methyl-1H-indole-5-carboxylic acid] | > 250
Cc1cc(OCCCc2c(C(=O)N3CCN(c4cccc(C(=O)O)c4)CC3)[nH]c3c(-c4c(C)nn(C)c4C)c(Cl)ccc23)cc(C)c1Cl [Example 732, 3-(4-(6-chloro-3-(3-(4-chloro-3,5-dimethylphenoxy)propyl)-7-(1,3,5-trimethyl-1H-pyrazol-4-yl)-1H-indole-2-carbonyl)piperazin-1-yl)benzoic acid] | 38
Cc1cc(OCCCc2c3n(c4c(-c5c(C)nn(C)c5C)c(Cl)ccc24)CCCN(c2cc(C(=O)O)c4cnn(CCO)c4c2)C3=O)cc(C)c1Cl [Example 107, 6-[8-Chloro-11-[3-(4-chloro-3,5-dimethyl-phenoxy)propyl]-1-oxo-7-(1,3,5-trimethylpyrazol-4-yl)-4,5-dihydro-3H-[1,4]diazepino[1,2-a]indol-2-yl]-1-(2-hydroxyethyl)indazole-4-carboxylic acid] | < 1
Cc1cc(OCCCc2c3n(c4c(-c5c(C)nn(C)c5C)c(Cl)ccc24)[C@H](C)CN(c2cccc4c2c(C(=O)O)nn4C)C3=O)cc(C)c1Cl [Example 127, 4-[(4R)-7-chloro-10-[3-(4-chloro-3,5-dimethyl-phenoxy)propyl]-4-methyl-1-oxo-6-(1,3,5-trimethylpyrazol-4-yl)-3,4-dihydropyrazino[1,2-a]indol-2-yl]-1-methyl-indazole-3-carboxylic acid] | < 1
COC(=O)c1cc2c(c(N3CCCn4c(c(CCCOc5cc(C)c(Cl)c(C)c5)c5ccc(Cl)c(-c6c(C)nn(C)c6C)c54)C3=O)c1)OCCO2 [Example 60, Methyl 8-(8-chloro-11-(3-(4-chloro-3,5-dimethylphenoxy)propyl)-1-oxo-7-(1,3,5-trimethyl-1H-pyrazol-4-yl)-4,5-dihydro-1H-[1,4]diazepino[1,2-a]indol-2(3H)-yl)-2,3-dihydrobenzo[b][1,4]dioxine-6-carboxylate] | < 1
Cc1cc(OCCCc2c3n(c4c(-c5c(C)nn(C)c5C)c(Cl)ccc24)CCCN(c2cc(C(=O)O)c4cn(CCN(C)C)nc4c2)C3=O)cc(C)c1Cl [Example 42, 6-[8-chloro-11-[3-(4-chloro-3,5-dimethyl-phenoxy)propyl]-1-oxo-7-(1,3,5-trimethylpyrazol-4-yl)-4,5-dihydro-3H-[1,4]diazepino[1,2-a]indol-2-yl]-2-[2-(dimethylamino)ethyl]indazole-4-carboxylic acid] | 8
Cc1cc(CCCCc2c(C(=O)N3CCN(c4ccnc(C(=O)O)c4)CC3)n(Cc3cccnc3)c3c(-c4c(C)nn(C)c4C)c(Cl)ccc23)cc(C)c1Cl [Example 742, 4-(4-(6-Chloro-3-(4-(4-chloro-3,5-dimethylphenyl)butyl)-1-(pyridin-3-ylmethyl)-7-(1,3,5-trimethyl-1H-pyrazol-4-yl)-1H-indole-2-carbonyl)piperazin-1-yl)picolinic acid] | > 200
